Test in all cases: in vitro antibacterial activity, agar plate dilution method
What all share (format): cell-based

For one assay, the system named is A. calcoaceticus No. 4. Particulars: Acinetobacter calcoaceticus. The method, then:
(§1) Now, the in vitro antibacterial activities of the compounds of the present invention against various microorganisms, were measured by the following agar plate dilution method.
(§2) One platinum loopfull of each test microorganism incubated overnight in Mueller Hinton broth, was inoculated to Mueller Hinton agar (MH agaer). Such culture media containing various antibiotics in various concentrations were prepared. After incubation at 37° C. for 16 hours, the minimum inhibitory concentrations (MIC μg/ml) were measured.

A further assay relates to E. cloacae 963. The method, then:
as §1, §2

The subject of the next assay is E. cloacae Nek 39*. The note with it: Enterobacter cloacae. The method, then:
as §1, §2

For the next assay, the system named is E. coli CSH(RE45)*. Particulars: Escherichia coli; 10^6 CFU/ml; β-Lactamase-producing strain; 37° C., 16 hours; read-out: MIC. The method, then: as §1, §2
In a further assay the test system is E. coli CSH2(RK1)*. Particulars: Escherichia coli, 16 h. As for the experimental part: as §1, §2
The next assay has as its system E. coli GN5482*. The note with it: Escherichia coli, GN5482, 16 h. As for the experimental part:
as §1, §2

For another assay, the system named is E. coli NIHJ JC2. Particulars: Escherichia coli, NIHJJC2; 10^6 CFU/ml; Mueller Hinton agar, 37° C., 16 hours; read-out: MIC. As for the experimental part: as §1, §2
The next assay relates to K. oxytoca GN10650*. Particulars: Klebsiella oxytoca. The method, then: as §1, §2
Another assay relates to K. pneumoniae No. 42*. The note with it: Klebsiella pneumoniae. As for the experimental part: as §1, §2
Another assay deals with K. pneumoniae PC1-602. Particulars: Klebsiella pneumoniae, PC1602; 10^6 CFU/ml; Mueller Hinton agar, 37° C., 16 hours; read-out: MIC. As for the experimental part: as §1, §2
The next assay relates to M. morganii GN5407*. Particulars: Morganella morganii. The method, then:
as §1, §2

Another assay relates to P. vulgaris HX-19. Particulars: Proteus vulgaris, HX19; 10^6 CFU/ml; Mueller Hinton agar, 37° C., 16 hours; read-out: MIC. As for the experimental part: as §1, §2
A further assay relates to P. vulgaris No. 33*. Particulars: Proteus vulgaris. The method, then: as §1, §2
The next assay has as its system Ps. aeruginosa AK 109. Particulars: Pseudomonas aeruginosa. As for the experimental part:
as §1, §2

In the next assay the test system is Ps. aeruginosa AKR17. Particulars: Pseudomonas aeruginosa. The method, then:
as §1, §2

In the next assay the test system is Ps. aeruginosa IFO3445. Particulars: Pseudomonas aeruginosa, IFO3445, 16 h. As for the experimental part:
as §1, §2

The test system of the next assay is Ps. cepacia 23. The method, then:
as §1, §2

A further assay deals with S. aureus 209P NIHJ-JC1. Particulars: Staphylococcus aureus. The method, then: as §1, §2
A further assay relates to S. marcescens IAM 1184. The note with it: Serratia marcescens. The method, then: as §1, §2
For another assay, the system named is S. marcescens No. 16-2*. The note with it: Serratia marcescens, 16 h. The method, then: as §1, §2
The mark [1] stands for this setting: 10^6 CFU/ml, β-Lactamase-producing strain, 37° C., 16 hours, read-out: MIC.
[2] abbreviates: GN10650, 10^6 CFU/ml, β-Lactamase-producing strain, 37° C., 16 hours, read-out: MIC.
Where [3] appears, read: GN5407, 10^6 CFU/ml, β-Lactamase-producing strain, 37° C., 16 hours, read-out: MIC.
Setting [4] is: AKR17, 10^6 CFU/ml, Mueller Hinton agar, 37° C., 16 hours, read-out: MIC.
Where [5] appears, read: Burkholderia cepacia, 23, 10^6 CFU/ml, Mueller Hinton agar, 37° C., 16 hours, read-out: MIC.
Setting [6] is: 10^6 CFU/ml, Mueller Hinton agar, 37° C., 16 hours, read-out: MIC.
Setting [7] is: IAM1184, 10^6 CFU/ml, Mueller Hinton agar, 37° C., 16 hours, read-out: MIC.
The mark [8] stands for this setting: Enterobacter cloacae, 963, 16 h.

Results on five compounds are retold here after US5084453A, “1-carboxy-1-vinyloxyimino aminothiazole cephalosporin derivatives” (priority 1988, dated 1992).

By MIC is commonly meant the least concentration at which growth counts as inhibited.

Like-named read-outs stand apart in the source and are kept apart here.

In the case of `C=C(O/N=C(\C(=O)N[C@@H]1C(=O)N2C(C(=O)O)=C(CSc3nnc(-c4ccc(O)c(O)c4)o3)CS[C@H]12)c1csc(N)n1)C(=O)O` [Example 11, disodium 7β-[2-(2-aminothiazol-4-yl)-2-(1-carboxy-1-vinyloxyimino)acetamido]-3-[5-(3,4-dihydroxyphenyl)-1,3,4-oxadiazol-2-yl]thiomethyl-3-cephem-4-carboxylate (syn-isomer)], the MIC in the assay with A. calcoaceticus No. 4 (NO.4, 16 h) was 0.1 mg/L; with E. cloacae 963 (Enterobacter cloacae, 963, 10^6 CFU/ml, Mueller Hinton agar, 37° C., 16 hours, read-out: MIC), 0.025 mg/L; in the assay on E. cloacae Nek 39* (setting [1]) it was 0.025 mg/L; in the assay with E. coli CSH(RE45)*, 0.05 mg/L; against E. coli CSH2(RK1)* it was less than 0.006 mg/L; against E. coli GN5482*, 0.1 mg/L. Also, the minimum inhibitory concentration (MIC) in the assay on E. coli NIHJ JC2 is 0.05 mg/L; with K. oxytoca GN10650* (setting [2]), 0.025 mg/L; in the assay with K. pneumoniae No. 42* (setting [1]) it was 0.025 mg/L; in the assay on K. pneumoniae PC1-602, less than 0.006 mg/L; in the assay with M. morganii GN5407* (setting [3]), 0.0125 mg/L; in the assay with P. vulgaris HX-19, less than 0.006 mg/L. Also, the minimum inhibitory concentration (MIC) with P. vulgaris No. 33* (setting [1]) was 0.0125 mg/L; in the assay with Ps. aeruginosa AK 109 (AK109, 16 h) it was 0.2 mg/L; with Ps. aeruginosa AKR17 (setting [4]), 3.12 mg/L; in the assay with Ps. aeruginosa IFO3445, 0.39 mg/L; in the assay with Ps. cepacia 23 (setting [5]), less than 0.006 mg/L; in the assay with S. aureus 209P NIHJ-JC1 (setting [6]) it was 12.5 mg/L. The MIC in the assay with S. marcescens IAM 1184 (setting [7]) came to 0.025 mg/L; in the assay on S. marcescens No. 16-2*, 0.2 mg/L.
Turning to `C=C(O/N=C(\C(=O)N[C@@H]1C(=O)N2C(C(=O)O)=C(CSc3nc(-c4ccc(O)c(O)c4)cs3)CS[C@H]12)c1csc(N)n1)C(=O)O` [Example 12, disodium 7β-[2-(2-aminothiazol-4-yl)-2-(1-carboxylato-1-vinyloxyimino)acetamido]-3-[4-(3,4-dihydroxyphenyl)thiazol-2-yl]thiomethyl-3-cephem-4-carboxylate(syn-isomer)], the MIC with A. calcoaceticus No. 4 (NO.4, 16 h) was 0.2 mg/L; in the assay on E. cloacae 963 (setting [8]), 0.2 mg/L; in the assay with E. cloacae Nek 39* (setting [1]), 0.1 mg/L; with E. coli CSH(RE45)*, 0.025 mg/L; with E. coli CSH2(RK1)*, 0.025 mg/L; against E. coli GN5482*, 0.39 mg/L. Further, the minimum inhibitory concentration (MIC) in the assay with E. coli NIHJ JC2 is 0.39 mg/L; in the assay on K. oxytoca GN10650* (setting [2]) it was 0.1 mg/L; in the assay on K. pneumoniae No. 42* (setting [1]), 0.05 mg/L; in the assay on K. pneumoniae PC1-602, less than 0.006 mg/L; in the assay on M. morganii GN5407* (setting [3]) it was 0.05 mg/L; in the assay on P. vulgaris HX-19, less than 0.006 mg/L. Moreover, the MIC stood at 0.025 mg/L against P. vulgaris No. 33* (16 h); 1.56 mg/L with Ps. aeruginosa AK 109 (AK109, 10^6 CFU/ml, Mueller Hinton agar, 37° C., 16 hours, read-out: MIC); 3.12 mg/L in the assay with Ps. aeruginosa AKR17 (setting [4]); 0.78 mg/L with Ps. aeruginosa IFO3445; 0.025 mg/L with Ps. cepacia 23 (Burkholderia cepacia, 23, 16 h); 3.12 mg/L in the assay with S. aureus 209P NIHJ-JC1 (setting [6]). Besides, the MIC came out at 0.05 mg/L in the assay on S. marcescens IAM 1184 (setting [7]) and 0.39 mg/L against S. marcescens No. 16-2*.
On to `C=C(O/N=C(\C(=O)N[C@@H]1C(=O)N2C(C(=O)O)=C(CSc3nnc(-c4ccc(O)c(O)c4)s3)CS[C@H]12)c1csc(N)n1)C(=O)O` [Example 13, disodium 7β-[2-(2-aminothiazol-4-yl)-2-(1-carboxylato-1-vinyloxyimino)acetamido]-3-[5-(3,4-dihydroxyphenyl)-1,3,4-thiadiazol-2-yl]thiomethyl-3-cephem-4-carboxylate (syn-isomer)], for which the minimum inhibitory concentration (MIC) in the assay on A. calcoaceticus No. 4 (NO.4, 16 h) was 0.1 mg/L; with E. cloacae 963 (setting [8]) it was 0.05 mg/L; against E. cloacae Nek 39* (16 h), 0.05 mg/L; in the assay with E. coli CSH(RE45)*, less than 0.006 mg/L; against E. coli CSH2(RK1)*, less than 0.006 mg/L; against E. coli GN5482*, 0.2 mg/L. Further, the minimal inhibitory concentration (MIC) in the assay on E. coli NIHJ JC2 was 0.2 mg/L; in the assay with K. oxytoca GN10650* (GN10650, 16 h) it was 0.025 mg/L; in the assay with K. pneumoniae No. 42* (setting [1]), 0.0125 mg/L; with K. pneumoniae PC1-602, 0.0125 mg/L; with M. morganii GN5407* (GN5407, 16 h) it was 0.1 mg/L; with P. vulgaris HX-19, less than 0.006 mg/L. Also, the MIC was 0.025 mg/L with P. vulgaris No. 33* (16 h); 0.1 mg/L with Ps. aeruginosa AK 109 (AK109, 16 h); 1.56 mg/L in the assay with Ps. aeruginosa AKR17 (AKR17, 16 h); 0.78 mg/L against Ps. aeruginosa IFO3445; less than 0.006 mg/L in the assay with Ps. cepacia 23 (setting [5]); 3.12 mg/L with S. aureus 209P NIHJ-JC1 (setting [6]). The MIC was determined as 0.025 mg/L in the assay with S. marcescens IAM 1184 (IAM1184, 16 h) and 0.05 mg/L against S. marcescens No. 16-2*.
With `C=C(O/N=C(\C(=O)N[C@@H]1C(=O)N2C(C(=O)O)=C(CSc3ncc(-c4ccc(O)c(O)c4)o3)CS[C@H]12)c1csc(N)n1)C(=O)O` [Example 14, disodium 7β-[2-(2-aminothiazol-4-yl)-2-(1-carboxylato-1-vinyloxyimino)acetamido]-3-[5-(3,4-dihydroxyphenyl)oxazol-2-yl]thiomethyl-3-cephem-4-carboxylate (syn-isomer)], the MIC is 0.2 mg/L in the assay with A. calcoaceticus No. 4 (NO.4, 10^6 CFU/ml, Mueller Hinton agar, 37° C., 16 hours, read-out: MIC); 0.39 mg/L in the assay with E. cloacae 963 (setting [8]); 0.1 mg/L against E. cloacae Nek 39* (16 h); 0.025 mg/L with E. coli CSH(RE45)*; 0.0125 mg/L against E. coli CSH2(RK1)*; 1.56 mg/L against E. coli GN5482*. The minimal inhibitory concentration (MIC) was 0.78 mg/L in the assay with E. coli NIHJ JC2; 0.1 mg/L in the assay with K. oxytoca GN10650* (GN10650, 16 h); 0.05 mg/L in the assay with K. pneumoniae No. 42* (setting [1]); less than 0.006 mg/L with K. pneumoniae PC1-602; 0.05 mg/L in the assay on M. morganii GN5407* (setting [3]); less than 0.006 mg/L with P. vulgaris HX-19. Also, the minimum inhibitory concentration (MIC) with P. vulgaris No. 33* (16 h) came to 0.025 mg/L; in the assay with Ps. aeruginosa AK 109 (AK109, 16 h), 0.78 mg/L; in the assay on Ps. aeruginosa AKR17 (setting [4]), 3.12 mg/L; in the assay with Ps. aeruginosa IFO3445, 0.78 mg/L; against Ps. cepacia 23 (Burkholderia cepacia, 23, 16 h), 0.0125 mg/L; against S. aureus 209P NIHJ-JC1 (16 h) it was 6.25 mg/L. In addition, the MIC in the assay with S. marcescens IAM 1184 (setting [7]) was found to be 0.05 mg/L; against S. marcescens No. 16-2* it was 0.39 mg/L.
On to `C=C(O/N=C(\C(=O)N[C@@H]1C(=O)N2C(C(=O)O)=C(CSc3nc(-c4ccc(OC(C)=O)c(OC(C)=O)c4)c(CC(=O)O)s3)CS[C@H]12)c1csc(N)n1)C(=O)O` [Example 16, trisodium 3-[4-(3,4-diacetoxyphenyl)-5-carboxylatomethylthiazol-2-yl]thiomethyl-7β-[2-(2-aminothiazol-4-yl)-2-(1-carboxylato-1-vinyloxyimino)acetamido]-3-cephem-4-carboxylate (syn-isomer)], for which the minimal inhibitory concentration (MIC) in the assay with A. calcoaceticus No. 4 (NO.4, 16 h) is 0.2 mg/L; against E. cloacae 963 (setting [8]), 0.39 mg/L; with E. cloacae Nek 39* (16 h), 0.2 mg/L; with E. coli CSH(RE45)*, 1.56 mg/L; against E. coli CSH2(RK1)*, 0.05 mg/L; against E. coli GN5482*, 0.78 mg/L. Also, the minimum inhibitory concentration (MIC) with E. coli NIHJ JC2 is 0.78 mg/L; with K. oxytoca GN10650* (GN10650, 16 h), 0.1 mg/L; with K. pneumoniae No. 42* (16 h), 0.1 mg/L; with K. pneumoniae PC1-602 it was less than 0.006 mg/L; in the assay with M. morganii GN5407* (GN5407, 16 h), 0.05 mg/L; with P. vulgaris HX-19, less than 0.006 mg/L. For the same compound, the MIC in the assay with P. vulgaris No. 33* (16 h) is 0.025 mg/L; in the assay on Ps. aeruginosa AK 109 (AK109, 16 h), 0.78 mg/L; against Ps. aeruginosa AKR17 (AKR17, 16 h), 1.56 mg/L; in the assay on Ps. aeruginosa IFO3445, 0.78 mg/L; in the assay on Ps. cepacia 23 (setting [5]), less than 0.006 mg/L; in the assay with S. aureus 209P NIHJ-JC1 (setting [6]), 12.5 mg/L. In addition, the minimum inhibitory concentration (MIC) is 0.05 mg/L against S. marcescens IAM 1184 (IAM1184, 16 h) and 0.78 mg/L with S. marcescens No. 16-2*.
